Test results from US9884868B2, “TGF-beta inhibitors” (Rigel Pharmaceuticals, Inc., priority 2015, dated 2018).

Molecular target: HIS-TGF-βR1 T204D (Homo sapiens (Human), UniProt P36897, T204D)
Assay: HTRF probe displacement assay with HIS-TGF-βR1 T204D
Settings: read-out: TGFbr1 IC50; HTRF probe displacement, 1 nM HIS-TGF-βR1 T204D, 1 hour at room temperature

Chain of HIS-TGF-βR1 T204D (P36897 34-503 T204D): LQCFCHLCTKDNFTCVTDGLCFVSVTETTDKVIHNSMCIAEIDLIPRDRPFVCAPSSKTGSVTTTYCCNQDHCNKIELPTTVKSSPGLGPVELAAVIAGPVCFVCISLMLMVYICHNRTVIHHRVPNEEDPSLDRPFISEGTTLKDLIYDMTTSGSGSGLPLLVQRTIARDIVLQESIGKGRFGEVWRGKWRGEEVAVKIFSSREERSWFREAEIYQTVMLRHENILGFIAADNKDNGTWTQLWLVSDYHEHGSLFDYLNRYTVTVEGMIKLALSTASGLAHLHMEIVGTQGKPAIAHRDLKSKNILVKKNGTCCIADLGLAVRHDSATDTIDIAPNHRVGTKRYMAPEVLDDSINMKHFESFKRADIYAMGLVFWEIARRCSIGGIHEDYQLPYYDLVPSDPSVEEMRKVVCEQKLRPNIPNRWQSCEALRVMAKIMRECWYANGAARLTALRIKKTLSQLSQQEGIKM

Compound | IC50
N#Cc1cnc2ccc(-c3c(-c4ccc(F)c(Cl)c4)ncn3C3CC3)nn12 [36′, 6-(4-(3-chloro-4-fluorophenyl)-1-cyclopropyl-1H-imidazol-5-yl)imidazo[1,2-b]pyridazine-3-carbonitrile] | 1.3 nM
NC(=O)c1cnc2ccc(-c3c(-c4ccc(F)c(Cl)c4)ncn3CC(F)F)nn12 [113′, 6-(4-(3-chloro-4-fluorophenyl)-1-(2,2-difluoroethyl)-1H-imidazol-5-yl)imidazo[1,2-b]pyridazine-3-carboxamide] | 0.9 nM
N#Cc1cnc2ccc(-c3c(-c4ccc(F)c(Cl)c4)ncn3C3CCC3)nn12 [58′, 6-(4-(3-chloro-4-fluorophenyl)-1-cyclobutyl-1H-imidazol-5-yl)imidazo[1,2-b]pyridazine-3-carbonitrile] | 0.8 nM
Fc1ccc(-c2ncn(C3CC(F)(F)C3)c2-c2ccc3nccn3c2)cc1Cl [184′, 6-(4-(3-chloro-4-fluorophenyl)-1-(3,3-difluorocyclobutyl)-1H-imidazol-5-yl)imidazo[1,2-a]pyridine] | 54.5 nM
N#Cc1cnc2ccc(-c3c(-c4ccccc4O)ncn3CC(F)F)nn12 [248′, 6-(1-(2,2-difluoroethyl)-4-(2-hydroxyphenyl)-1H-imidazol-5-yl)imidazo[1,2-b]pyridazine-3-carbonitrile] | 0.7 nM
Fc1ccc(-c2ncn([C@@H]3CCC(F)(F)C3)c2-c2ccc3nccn3c2)cc1Cl [185′, (R)-6-(4-(3-chloro-4-fluorophenyl)-1-(3,3-difluorocyclopentyl)-1H-imidazol-5-yl)imidazo[1,2-a]pyridine] | 30.1 nM
NC(=O)c1cnc2ccc(-c3c(-c4ccc(F)c(Cl)c4)ncn3CCC3CCC3)nn12 [150′, 6-(4-(3-chloro-4-fluorophenyl)-1-(2-cyclobutylethyl)-1H-imidazol-5-yl)imidazo[1,2-b]pyridazine-3-carboxamide] | 1.2 nM
N#Cc1cnc2ccc(-c3c(-c4ccc(F)c(Cl)c4)ncn3C34CC(C3)C4)nn12 [59′, 6-(1-(bicyclo[1.1.1]pentan-1-yl)-4-(3-chloro-4-fluorophenyl)-1H-imidazol-5-yl)imidazo[1,2-b]pyridazine-3-carbonitrile] | 1.1 nM
NC(=O)c1cnc2ccc(-c3c(-c4ccc(F)c(Cl)c4)ncn3C3CCOC3)nn12 (stereo not shown) [146′, 6-(4-(3-chloro-4-fluorophenyl)-1-(tetrahydrofuran-3-yl)-1H-imidazol-5-yl)imidazo[1,2-b]pyridazine-3-carboxamide] | 1.7 nM
CONC(=O)c1cnc2ccc(-c3c(-c4ccc(F)cc4)ncn3CC(F)F)nn12 [209′, 6-(1-(2,2-difluoroethyl)-4-(4-fluorophenyl)-1H-imidazol-5-yl)-N-methoxyimidazo[1,2-b]pyridazine-3-carboxamide] | 0.7 nM
N#Cc1cnc2ccc(-c3c(-c4cccc(O)c4)ncn3CC(F)F)nn12 [249′, 6-(1-(2,2-difluoroethyl)-4-(3-hydroxyphenyl)-1H-imidazol-5-yl)imidazo[1,2-b]pyridazine-3-carbonitrile] | 2.2 nM
CC(F)(F)Cn1cnc(-c2ccc(F)c(Cl)c2)c1-c1ccc2ncc(C#N)n2n1 [56′, 6-(4-(3-chloro-4-fluorophenyl)-1-(2,2-difluoropropyl)-1H-imidazol-5-yl)imidazo[1,2-b]pyridazine-3-carbonitrile] | 0.8 nM

Second part, the compound after the results:

IC50 | Compound
2 nM | N#CC1(n2cnc(-c3ccc(F)cc3)c2-c2ccc3nccn3n2)CC1 [Example 188′, 1-(4-(4-fluorophenyl)-5-(imidazo[1,2-b]pyridazin-6-yl)-1H-imidazol-1-yl)cyclopropanecarbonitrile]
20.9 nM | Fc1ccc(-c2ncn(CC(F)F)c2-c2ccc3ncc(C(F)F)n3c2)cc1 [Example 277′, 6-(1-(2,2-difluoroethyl)-4-(4-fluorophenyl)-1H-imidazol-5-yl)-3-(difluoromethyl)imidazo [1,2-a]pyridine]
1.1 nM | CC(C)Cn1cnc(-c2ccc(F)cc2)c1-c1ccc2ncc(C(N)=O)n2c1 [168′, 6-(4-(4-fluorophenyl)-1-isobutyl-1H-imidazol-5-yl)imidazo[1,2-a]pyridine-3-carboxamide]
23.8 nM | CNCc1cnc2ccc(-c3c(-c4ccc(F)cc4)ncn3CC(F)F)nn12 [Example 196′]
4.2 nM | NC(=O)c1cnc2ccc(-c3c(-c4ccc(F)cc4)ncn3[C@H]3C[C@@H](O)C3)nn12 [Example 123′]
44.8 nM | N#Cc1cnc2ccc(-c3c(-c4ccc(F)cc4)nc(N)n3CC(F)F)cn12 [Example 298′, 6-(2-amino-1-(2,2-difluoroethyl)-4-(4-fluorophenyl)-1H-imidazol-5-yl)imidazo[1,2-a]pyridine-3-carbonitrile]
38.8 nM | Fc1ccc(-c2ncn(CC(F)F)c2-c2ccc3ncc(C4CC4)n3c2)cc1 [Example 285′, 3-cyclopropyl-6-(1-(2,2-difluoroethyl)-4-(4-fluorophenyl)-1H-imidazol-5-yl)imidazo[1,2-a]pyridine]
1.8 nM | NNC(=O)c1cnc2ccc(-c3c(-c4ccc(F)cc4)ncn3CC(F)F)nn12 [Example 205′, 6-(1-(2,2-difluoroethyl)-4-(4-fluorophenyl)-1H-imidazol-5-yl)imidazo[1,2-b]pyridazine-3-carbohydrazide]
516 nM | N#Cc1cnc2ccc(-c3c(-c4ccc(N)cc4)ncn3CC(F)F)nn12 [264′, 6-(4-(4-aminophenyl)-1-(2,2-difluoroethyl)-1H-imidazol-5-yl)imidazo[1,2-b]pyridazine-3-carbonitrile]
71.6 nM | CC(C)Cn1cnc(-c2ccc(F)cc2)c1-c1ccc2ncc(C#N)n2c1 [82′, 6-(4-(4-fluorophenyl)-1-isobutyl-1H-imidazol-5-yl)imidazo[1,2-a]pyridine-3-carbonitrile]
99.2 nM | CC(C)(C)Cn1cnc(-c2ccc(F)cc2)c1-c1ccc2ncc(C#N)n2n1 [Example 270′, 6-(4-(4-fluorophenyl)-1-neopentyl-1H-imidazol-5-yl)imidazo[1,2-b]pyridazine-3-carbonitrile]
67.8 nM | N#Cc1cnc2ccc(-c3c(-c4ccc(F)cc4)ncn3CC3CCC3)cn12 [72′, 6-(1-(cyclobutylmethyl)-4-(4-fluorophenyl)-1H-imidazol-5-yl)imidazo[1,2-a]pyridine-3-carbonitrile]
144 nM | N#Cc1cnc2ccc(-c3c(-c4ccc(F)cc4)ncn3C(CO)CO)cn12 [85′, 6-(1-(1,3-dihydroxypropan-2-yl)-4-(4-fluorophenyl)-1H-imidazol-5-yl)imidazo[1,2-a]pyridine-3-carbonitrile]
172 nM | Cc1nc(-c2ccc(F)cc2)c(-c2ccc3nccn3c2)n1CC(F)F [Example 271′, 6-(1-(2,2-difluoroethyl)-4-(4-fluorophenyl)-2-methyl-1H-imidazol-5-yl)imidazo[1,2-a]pyridine]
0.4 nM | CCn1cnc(-c2ccc(F)c(Cl)c2)c1-c1ccc2ncc(C(N)=O)n2c1 [119′, 6-(4-(3-chloro-4-fluorophenyl)-1-ethyl-1H-imidazol-5-yl)imidazo[1,2-a]pyridine-3-carboxamide]
152 nM | CCC(CC)n1cnc(-c2ccc(F)cc2)c1-c1ccc2ncc(C#N)n2c1 [74′, 6-(4-(4-fluorophenyl)-1-(pentan-3-yl)-1H-imidazol-5-yl)imidazo[1,2-c]pyridine-3-carbonitrile]
